Experiment [1] deals with COVID-19. The experiment in a line: coronavirus capture (attachment) test on coated surfaces, crystal violet stain read by spectrophotometer. The conditions noted are these: FIG. 1; virus capture by coated surfaces.
Experiment [2] has as its system COVID-19. The experiment is described as follows: coronavirus deactivation test after attachment to the surfaces, qPCR for genes indicative of COVID-19 activity. To be noted: FIG. 2; compared among the antiviral coatings.

The record followed here is patent US11179663B1, “Polyurethane-based materials” (Aviro LLC, priority 2021, dated 2021).

Consider `CCCCCCCCCCCCCCCC[n+]1ccccc1` [CPC, Cetyl pyridinium chloride], for which, in experiment [1], the SARS-Cov2 capture result was “roughly 95%”.

As for `CCCCCCCCCCCCCCCCCC[N+](C)(C)CCC[Si](OC)(OC)OC.[Cl-]` [DMS, Dimethyloctadecyl[3-(trimethoxysilyl)propyl]ammonium chloride], the “potential to deactivate captured virus” value in experiment [2] is given as “highest potential to deactivate”.
